Tests used:
hCA I = hCA I (Homo sapiens, UniProt P00915); test: stopped flow CO2 hydrase assay, hCA I; type: biochemical; conditions: for folds higher potency against hCA I when compared to the standard (AAZ, V): relative to AAZ; for Ki: stopped flow CO2 hydrase assay, errors ±5–10% of the stated values
Experimental: (§1) The activity of the CA-catalyzed CO2 hydration reaction was evaluated employing an applied photophysics stopped-flow instrument. […] A minimum of six traces of the starting 5–10% of the reaction were analysed to measure the initial velocity for each inhibitor. In a similar manner, the uncatalyzed rates were evaluated and subtracted from the overall calculated rates. Stock inhibitor solutions (10 mM) were prepared in distilled–deionized water, and dilutions up to 0.01 nM were prepared with distilled–deionized water after that. Preincubation of the inhibitor enzyme solutions at room temperature to enable the formation of the E-I complex was carried out for 15 min before starting the experiment. The inhibition constants were determined employing PRISM 3, while the kinetic parameters for the uninhibited enzymes were calculated using Lineweaver-Burk plots that comprise the mean of at least three separate measurements with errors ranging to ±5–10% of the stated values[37]^,[38].
(§2) This panel comprised the two ubiquitously expressed cytosolic hCA I and II isoforms, along with the two tumour-related transmembrane hCA IX and XII isoforms.

hCA II = hCA II (Homo sapiens, UniProt P00918); test: stopped flow CO2 hydrase assay, hCA II; type: biochemical; conditions: for folds of potency compared to AAZ against isoform hCA II: relative to AAZ (12.1 nM); for Ki: stopped flow CO2 hydrase assay, errors ±5–10% of the stated values; for inhibitory activity against hCA II (in words): compared to their para-sulphonamide analogues
Experimental: as §1, §2

hCA IX = hCA IX (Homo sapiens, UniProt Q16790); test: stopped flow CO2 hydrase assay, hCA IX; type: biochemical; conditions: errors ±5–10% of the stated values
Experimental: as §1, §2

hCA XII = hCA XII (Homo sapiens, UniProt O43570); test: stopped flow CO2 hydrase assay, hCA XII; type: biochemical; conditions: errors ±5–10% of the stated values
Experimental: as §1, §2

Sequence of hCA XII (O43570 25-354): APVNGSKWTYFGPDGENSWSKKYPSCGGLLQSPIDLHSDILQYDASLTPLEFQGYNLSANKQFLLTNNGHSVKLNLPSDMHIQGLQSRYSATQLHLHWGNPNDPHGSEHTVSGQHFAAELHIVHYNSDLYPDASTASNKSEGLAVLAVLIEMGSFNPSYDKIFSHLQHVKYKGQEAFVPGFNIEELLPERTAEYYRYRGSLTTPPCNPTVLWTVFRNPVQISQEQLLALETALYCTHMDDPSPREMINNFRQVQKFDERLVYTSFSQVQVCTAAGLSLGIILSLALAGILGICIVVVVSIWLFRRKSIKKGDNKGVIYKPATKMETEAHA
Sequence of hCA I (P00915 whole entry): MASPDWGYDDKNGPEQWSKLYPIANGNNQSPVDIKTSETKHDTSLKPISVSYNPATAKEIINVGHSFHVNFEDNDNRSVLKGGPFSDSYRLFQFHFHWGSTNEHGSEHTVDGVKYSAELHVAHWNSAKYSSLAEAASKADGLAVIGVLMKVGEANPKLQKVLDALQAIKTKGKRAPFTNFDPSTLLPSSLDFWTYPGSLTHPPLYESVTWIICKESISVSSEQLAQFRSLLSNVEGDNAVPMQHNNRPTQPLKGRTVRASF

SMILES	folds higher potency against hCA I when compared to the standard (AAZ, V) (hCA I)	Ki (hCA I)	folds of potency compared to AAZ against isoform hCA II (hCA II)	Ki (hCA II)	Ki (hCA IX)	Ki (hCA XII)	inhibitory activity against hCA I (in words) (hCA I)	inhibitory activity against hCA II (in words) (hCA II)	melting point
NS(=O)(=O)c1ccc(Nc2ncnc3ccc(-c4ccccc4)cc23)cc1 [Compound 4a, 4-((6-phenylquinazolin-4-yl)amino)benzenesulfonamide]	–	600 nM	5 folds	2.4 nM	180 nM	65.7 nM	–	–	–
NS(=O)(=O)c1ccc(Nc2ncnc3ccc(-c4ccc(F)cc4)cc23)cc1 [Compound 4c, 4-((6–(4-fluorophenyl)quinazolin-4-yl)amino)benzenesulfonamide]	–	931 nM	–	47.1 nM	560 nM	93 nM	–	–	–
NS(=O)(=O)c1ccc(Nc2ncnc3ccc(-c4cccc([N+](=O)[O-])c4)cc23)cc1 [Compound 4d, 4-((6–(3-nitrophenyl)quinazolin-4-yl)amino)benzenesulfonamide]	–	588 nM	–	55.7 nM	265 nM	90.7 nM	–	–	–
NS(=O)(=O)c1ccc(Nc2ncnc3ccc(-c4ccc(N5CCOCC5)cc4)cc23)cc1 [Compound 4h, 4-((6–(4-morpholinophenyl)quinazolin-4-yl)amino)benzenesulfonamide]	–	548 nM	–	112 nM	337 nM	49.8 nM	–	–	–
NS(=O)(=O)c1cccc(Nc2ncnc3ccc(-c4ccc(C=O)o4)cc23)c1 [Compound 4i, 3-((6–(5-formylfuran-2-yl)quinazolin-4-yl)amino)benzenesulfonamide]	–	5580 nM	–	2420 nM	488 nM	52.7 nM	–	–	–
NS(=O)(=O)c1ccc(Nc2ncnc3cc(-c4cccc(O)c4)ccc23)cc1 [Compound 4j, 4-((7–(3-hydroxyphenyl)quinazolin-4-yl)amino)benzenesulfonamide]	–	361 nM	–	66.3 nM	245 nM	66.7 nM	–	–	–
NS(=O)(=O)c1cccc(Nc2ncnc3cc(-c4cccc(O)c4)ccc23)c1 [Compound 4k, 3-((7–(3-hydroxyphenyl)quinazolin-4-yl)amino)benzenesulfonamide]	–	4680 nM	–	2520 nM	90.3 nM	69.7 nM	–	loss of activity	–

Further compounds by falling Ki (hCA I), results first:

folds higher potency against hCA I when compared to the standard (AAZ, V) (hCA I)	Ki (hCA I)	folds of potency compared to AAZ against isoform hCA II (hCA II)	Ki (hCA II)	Ki (hCA IX)	Ki (hCA XII)	inhibitory activity against hCA I (in words) (hCA I)	inhibitory activity against hCA II (in words) (hCA II)	melting point	SMILES
–	7100 nM	–	5760 nM	95.3 nM	39.4 nM	lost all activity	loss of activity	–	NS(=O)(=O)c1cccc(Nc2ncnc3ccc(Br)cc23)c1 [Compound 3b]
–	6570 nM	–	678 nM	88.8 nM	89.4 nM	–	loss of activity	327 to 329 °C	NS(=O)(=O)c1cccc(Nc2ncnc3ccc(-c4ccccc4)cc23)c1 [Compound 4l, 3-((6-phenylquinazolin-4-yl)amino)benzenesulfonamide]
–	3130 nM	–	231 nM	229 nM	30.5 nM	–	–	–	NS(=O)(=O)c1cccc(Nc2ncnc3ccc(-c4ccc(F)cc4)cc23)c1 [Compound 4g, 3-((6–(4-fluorophenyl)quinazolin-4-yl)amino)benzenesulfonamide]
–	651 nM	–	–	86.9 nM	67.4 nM	–	–	–	NS(=O)(=O)c1ccc(Nc2ncnc3ccc(-c4ccc(C=O)cc4)cc23)cc1 [Compound 4b, 4-((6–(4-formylphenyl)quinazolin-4-yl)amino)benzenesulfonamide]
2.7 folds	91.2 nM	2.6 folds	4.6 nM	86.9 nM	77 nM	–	–	–	COc1ccc(-c2ccc3ncnc(Nc4ccc(S(N)(=O)=O)cc4)c3c2)cc1 [Compound 4e, 4-((6–(4-methoxyphenyl)quinazolin-4-yl)amino)benzenesulfonamide]
2.8 folds	89.4 nM	1.4 folds	8.7 nM	174 nM	46.5 nM	–	–	–	NS(=O)(=O)c1ccc(Nc2ncnc3ccc(Br)cc23)cc1 [Compound 3a]
4 folds	60.9 nM	–	37.1 nM	86.5 nM	89.5 nM	–	–	–	NS(=O)(=O)c1ccc(Nc2ncnc3ccc(-c4ccsc4)cc23)cc1 [Compound 4f, 4-((6-(thiophen-3-yl)quinazolin-4-yl)amino)benzenesulfonamide]

Reference: article PMC8973350, “4-Anilinoquinazoline-based benzenesulfonamides as nanomolar inhibitors of carbonic anhydrase isoforms I, II, IX, and XII: design, synthesis, in-vitro, and in-silico biological studies” (Journal of Enzyme Inhibition and Medicinal Chemistry, 2022)
